Assays:
[1] = test system: A375 human melanoma cells; assay: A375 human melanoma tumors in SCID mice; format: in vivo; conditions: at the time of sacrifice; stabilizer 17 mg/kg, docetaxel 1 mg/kg, IP 3 times per week
Method: 6-8-week-old C57BL/6 mice or SCID mice were injected with 1×10^5 B16F10 murine melanoma cells or 1×10^6 A375 human melanoma cells, respectively, subcutaneously on the left flank. […] Tumor diameters were measured 3 times per week with calipers, and tumor volumes will be calculated as follows: Tumor volume=0.5×[(large diameter)×(small diameter)^2].
In the study, immunocompromised SCID mice were inoculated with A375 human melanoma tumors subcutaneously. Starting when the tumors became palpable (7 days after injection), mice were treated with either the cytotoxic chemotherapy docetaxel or with the disclosed HIF-2α stabilizer. The disclosed HIF-2α stabilizer was given at a dose of 17 mg/kg, and the docetaxel was given at 1 mg/kg. Both drugs were given IP 3 times per week. […] At the time of sacrifice, the tumors in the mice that received only the disclosed HIF-2α stabilizer were approximately 78% of the size of the control tumors, the tumors of the mice that received only chemotherapy were approximately 50% of the size of the control tumors, and the tumors of the mice that received both drugs were approximately 16% of the size of the control tumors.

[2] = test system: VEGF; assay: VEGF production by human peripheral blood monocytes (ELISA, real-time PCR); format: cell-based; conditions: FIG. 11C
Method: (§1) Human peripheral blood mononuclear cells (PBMCs) were isolated from fresh peripheral blood leukocyte source packs (American Red Cross, Columbus Ohio) by density gradient centrifugation over Lymphocyte Separation Medium (Cellgro). Monocytes were purified from total PBMCs by layering over FBS. Monocytes were cultured in endotoxin-free RPMI-1640 supplemented with 1% fetal bovine serum (FBS), 0.1% human serum albumin (HSA), and 10 μg/mL of the endotoxin inhibitor polymyxin B. In some experiments, freshly isolated monocytes were differentiated into macrophages by three-day culture in media containing 10% FBS, 1% PSA (penicillin G sodium, streptomycin sulfate, and amphotericin B), and 20 ng/mL M-CSF. Macrophages were serum-starved for 2 hours prior to stimulation. Monocytes or monocyte-derived macrophages were treated for 24 hours with 10 ng/mL GM-CSF, 10 μM disclosed HIF-2α stabilizer, or an equivalent volume of the vehicle controls (PBS or DMSO, respectively). Cell-free culture supematants were harvested and analyzed for VEGF or sVEGFR-1 by ELISA (R&D Systems).
Human monocytes were left untreated or were stimulated with 100 ng/mL GM-CSF at normoxia or at 0.5% O2. At various time-points, cells were harvested in Trizol reagent (Invitrogen) and RNA was extracted in chloroform and then purified using the RNeasy Minikit (Qiagen). In murine studies, organs harvested at the time of euthanasia were flash-frozen in liquid nitrogen, pulverized in liquid nitrogen, and then dissolved in Trizol. cDNA was generated from 1 μg of RNA using the Superscript First Strand Synthesis System (Invitrogen) and used for real-time PCR using previously described primers and SYBR Green PCR Master Mix (Applied Biosciences), according to the manufacturer's instructions. Data were analyzed according to the comparative threshold method and normalized against the β-actin internal control transcript. Results are semi-quantitative and represent the fold difference in transcript levels in a particular sample as compared with levels in untreated cells from the same donor. […]

[3] = test system: VEGF mRNA; assay: Real-time PCR of VEGF mRNA within B16F10 tumors; format: in vivo, mice; conditions: p=0.490, FIG. 13B
Method: (§2) Human monocytes were left untreated or were stimulated with 100 ng/mL GM-CSF at normoxia or at 0.5% O2. At various time-points, cells were harvested in Trizol reagent (Invitrogen) and RNA was extracted in chloroform and then purified using the RNeasy Minikit (Qiagen). In murine studies, organs harvested at the time of euthanasia were flash-frozen in liquid nitrogen, pulverized in liquid nitrogen, and then dissolved in Trizol. cDNA was generated from 1 μg of RNA using the Superscript First Strand Synthesis System (Invitrogen) and used for real-time PCR using previously described primers and SYBR Green PCR Master Mix (Applied Biosciences), according to the manufacturer's instructions. Data were analyzed according to the comparative threshold method and normalized against the β-actin internal control transcript. Results are semi-quantitative and represent the fold difference in transcript levels in a particular sample as compared with levels in untreated cells from the same donor.
6-8-week-old C57BL/6 mice were injected with 1×10^5 B16F10 murine melanoma cells murine subcutaneously on the left flank. […] Tumor diameters were measured 3 times per week with calipers, and tumor volumes will be calculated as follows: Tumor volume=0.5×[(large diameter)×(small diameter)^2]. […]

[4] = test system: B16F10 murine melanoma cells; assay: Murine melanoma tumor model (B16F10 in C57BL/6 mice); format: in vivo
Method: Mice were injected with 1×10^5 B16F10 murine melanoma cells murine subcutaneously on the left flank. Once tumors become palpable (approximately 5 days), mice were randomly allocated to receive treatment with either: 20% polyethylene glycol (PEG) in 5% […] (vehicle control for the disclosed HIF-2α stabilizer) and PBS (vehicle control for GM-CSF), 20% PEG and GM-CSF (100 ng per mouse in a 50 μL volume), the disclosed HIF-2α stabilizer (17.5 mg/kg in a 100 μL volume) and PBS, or the disclosed HIF-2α stabilizer and GM-CSF (same doses). The PBS and GM-CSF were administered intratumorally, while the 20% PEG and the disclosed HIF-2α stabilizer were administered intraperitoneally. Mice were treated 3 times per week until tumors reached a size of 20 mm in any dimension (approximately 2.5 weeks), at which point mice were euthanized, in accordance with institutional policy. Tumor diameters were measured 3 times per week with calipers, and tumor volumes were calculated as follows: Tumor volume=0.5×[(large diameter)×(small diameter)^2].
6-8-week-old C57BL/6 mice were injected with 1×10^5 B16F10 murine melanoma cells murine subcutaneously on the left flank. Once tumors become palpable (approximately 5 days), mice were randomly allocated to receive treatment with either: 20% PEG-400 in 5% sucrose (vehicle for disclosed HIF-2α stabilizer) and PBS (vehicle for GM-CSF), 20% PEG-400 and GM-CSF (100 ng per mouse in a 50 μL volume), disclosed HIF-2α stabilizer (17.5 mg/kg mouse weight in a 100 μL volume) and PBS, or the disclosed HIF-2α stabilizer and GM-CSF (same concentrations). The disclosed HIF-2α stabilizer (or the vehicle control) was administered intraperitoneally, while GM-CSF (or the vehicle control) was administered intratumorally. Mice were treated […] 3 times per week until tumors reached a size of 20 mm in any dimension (approximately 2.5 weeks), at which point mice were be euthanized, in accordance with institutional policy. Tumor diameters were measured 3 times per week with calipers, and tumor volumes will be calculated as follows: Tumor volume=0.5×[(large diameter)×(small diameter)^2]. For experiments analyzing the effect of neutralizing sVEGFR-1 in combination with disclosed HIF-2α stabilizer treatment, mice were treated intraperitoneally 3×/week with either disclosed HIF-2α stabilizer or vehicle control, and intratumorally with either 4 μg anti-VEGFR-1 neutralizing antibody (R&D Systems) or 4 μg polyclonal goat IgG isotype control (Santa Cruz Biotechnology) in a 50 μL volume. All protocols were approved by the Ohio State University Animal Care and Use Committee, and mice were treated in accordance with institutional guidelines for animal care.
The ANOVA test was used to compare independent measurements between multiple treatment groups. The data was log-transformed to normalize the variance across groups. P-values were adjusted using the Holm's procedure to conserve the type I error at 0.05 due to the multiple comparisons. For tumor growth data, changes in tumor volume over time were assessed via a longitudinal model. Tumor values were log-transformed, and estimated slopes (changes in tumor volume over time) were calculated with 95% confidence intervals. Estimated differences in tumor volume were calculated by a random-effects regression of the longitudinal data. For all analyses, p≦0.05 was considered statistically significant.
6-8-week-old C57BL/6 mice or SCID mice were injected with 1×10^5 B16F10 murine melanoma cells or 1×10^6 A375 human melanoma cells, respectively, subcutaneously on the left flank. […]

[5] = test system: sVEGFR-1; assay: sVEGFR-1 production by human peripheral blood monocytes (ELISA, real-time PCR); format: cell-based; conditions: monocytes stimulated with GM-CSF alone; FIG. 11D
Method: as §1, §2

Row | Molecule | tumor size as % of the size of the control tumors [1] | VEGF protein in supernatants (free VEGF ELISA) ([2]; GM-CSF-stimulated monocytes, VEGF neutralized by sVEGFR-1) | VEGF transcript levels ([2]; monocytes stimulated with GM-CSF alone) | levels of intratumoral VEGF vs vehicle control-treated mice [3] | tumor volume reduction, GM-CSF given I.T. vs I.P. ([4]; B16F10 melanoma, stabilizer 17 mg/kg I.P. in all cases, no control group, FIG. 4) | tumor growth / tumor volume ([4]; B16F10 melanoma, stabilizer 17 mg/kg I.P., GM-CSF I.T., vs PBS control, FIG. 3) | average tumor volumes vs vehicle controls ([4]; day 16 of treatment, 3×/week, GM-CSF 100 ng/mouse intratumoral, stabilizer 17.5 mg/kg intraperitoneal, each p<0.001) | monocyte production of sVEGFR-1 [5]
1 | CC(=O)O[C@@]12CO[C@@H]1C[C@H](O)[C@@]1(C)C(=O)[C@H](O)C3=C(C)[C@@H](OC(=O)[C@H](O)[C@@H](NC(=O)OC(C)(C)C)c4ccccc4)C[C@@](O)([C@@H](OC(=O)c4ccccc4)[C@H]21)C3(C)C [docetaxel, reference compound] | approximately 50% | – | – | – | – | – | – | –
2 | GM-CSF: granulocyte-macrophage colony-stimulating factor | – | undetectable | increased VEGF production | failed to increase | greater reduction of tumor volume | reduction in tumor volume | significantly smaller | induced

From US20170105981A1, “METHODS FOR STABILIZING HYPOXIA INDUCIBLE FACTOR-2 ALPHA AS A METHOD FOR TREATING CANCER” (The Ohio State Innovation Foundation, priority 2011, published 2017)
